The target in this experiment is DDE (fibrin-derived polypeptide) (Homo sapiens, UniProt P02671+P02675+P02679). The experiment can be described thus: Direct binding fluorescence polarization (FP) assay using 5-carboxyfluorescein labeled peptides. The conditions noted are these: 20 nM CF5-labeled peptide, serial dilutions of DDE, anisotropy read at 485 nm; read-out: KD (μM) Direct Binding (n = 2). How it is done:
Assay of Fibrin Binding Peptides by Direct Binding Fluorescence Polarization (FP) Procedure using 5-Carboxyfluoresein Labeled Peptides
Protocol • 1. Prepare 1 mL of 40 nM solution of 5-carboxyfluorescein-labeled peptide in HEPES dilution buffer (HDB) with 0.01% Tween. • HDB (10 mM HEPES, 150 mM […], 2 mM CaCl2) • 2. Dilute the 40 nM solution to obtain 1 ml of a 20 nM solution of the test 5-carboxyfluorescein-labeled peptide. • 3. Prepare a solution of DDE at a concentration that will be approximately 5-10 fold greater than the expected KD. For the described assay an 8 μM concentration of DDE was prepared. • 4. Mix equal volumes of the DDE solution with the 40 nM peptide solution. • 5. Prepare serial dilutions of DDE in a solution consisting of the binding buffer with 0.01% Tween20 and 20 nM of the 5-carboxyfluorescein-labeled peptide. • 6. Make dilutions as shown in the following table in a Labsystems 384-well microplate and mix by repeated aspiration and dispensing of the solution into the wells. • 7. Centrifuge the plate at 2000 RPM for 5 minutes to remove air pockets in the wells. • 8. Read in Tecan Polarion Plate Reader at 485 nm to obtain the anisotropy value.
The anisotropy (in mP—millipolarization units) vs the logarithm of the concentration (micromoles/liter) of the receptor concentration is graphed. The dissociation constant is obtained at the midpoint of the curve whose extrema are Afree and Abound where Afree is the anisotropy of the free peptide and Abound is the anisotropy of the fully bound peptide. The theory, methods of operation and mathematical analysis is described in, for example, the following reference: Fluorescence Polarization Technical Resource Guide Technical Resource Guide 4th Edn. Invitrogen Corporation•501 Charmany Drive•Madison, Wis. 53719 USA. Particularly, the mathematical analysis of the data and obtaining binding constants is described in Chapter 8: Analysis of FP Binding Data pp 8-2-8-7.

Bridge positions count the residues as written; N and C are the ends. Square brackets hold non-standard residues; d marks the D form. Peptide text beside a SMILES is read from it. * marks the point of attachment. 5FAM = O=C1OC2(c3ccc(O)cc3Oc3cc(O)ccc32)c2ccc(C(=O)*)cc21; Phe(4-F) = N[C@@H](Cc1ccc(F)cc1)C(=O)O; Cha = N[C@@H](CC1CCCCC1)C(=O)O

Sequence of DDE (fibrin-derived polypeptide) (P02671 124-216): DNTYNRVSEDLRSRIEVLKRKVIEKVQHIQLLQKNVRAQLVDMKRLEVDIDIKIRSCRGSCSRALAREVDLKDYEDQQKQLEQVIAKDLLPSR
Sequence of DDE (fibrin-derived polypeptide) (P02675 164-491): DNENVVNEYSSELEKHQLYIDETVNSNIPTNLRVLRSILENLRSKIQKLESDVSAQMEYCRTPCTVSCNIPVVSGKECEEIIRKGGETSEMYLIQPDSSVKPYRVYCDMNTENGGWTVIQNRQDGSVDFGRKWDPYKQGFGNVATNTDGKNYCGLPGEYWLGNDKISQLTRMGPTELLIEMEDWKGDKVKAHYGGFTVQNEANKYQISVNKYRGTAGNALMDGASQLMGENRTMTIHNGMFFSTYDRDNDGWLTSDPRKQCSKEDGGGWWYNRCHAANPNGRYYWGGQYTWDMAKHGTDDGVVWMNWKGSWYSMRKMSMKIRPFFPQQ
Sequence of DDE (fibrin-derived polypeptide) (P02679 114-432): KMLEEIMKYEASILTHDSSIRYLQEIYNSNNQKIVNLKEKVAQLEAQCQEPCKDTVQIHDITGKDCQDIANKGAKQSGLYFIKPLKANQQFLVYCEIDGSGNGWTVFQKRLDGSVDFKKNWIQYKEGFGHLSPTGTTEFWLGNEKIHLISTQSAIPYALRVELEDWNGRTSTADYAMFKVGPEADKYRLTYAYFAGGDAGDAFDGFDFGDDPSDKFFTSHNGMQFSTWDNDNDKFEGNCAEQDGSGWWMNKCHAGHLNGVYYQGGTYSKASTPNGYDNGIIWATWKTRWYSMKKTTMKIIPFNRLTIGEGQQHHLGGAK
Sequence of DDE (fibrin-derived polypeptide) (P02671 36-97): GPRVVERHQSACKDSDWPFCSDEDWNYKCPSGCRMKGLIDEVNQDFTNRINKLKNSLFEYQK
Sequence of DDE (fibrin-derived polypeptide) (P02675 45-152): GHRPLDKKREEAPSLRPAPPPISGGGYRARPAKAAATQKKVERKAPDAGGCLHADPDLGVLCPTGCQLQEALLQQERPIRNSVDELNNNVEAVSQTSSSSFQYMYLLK
Sequence of DDE (fibrin-derived polypeptide) (P02679 27-88): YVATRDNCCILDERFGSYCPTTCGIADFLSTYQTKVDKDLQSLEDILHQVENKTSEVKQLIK

Usually Kd stands for the constant that tells how readily two partners part at equilibrium. Turning to `CC(=O)N[C@@H](CCCNC(=N)N)C(=O)NCC(=O)N[C@@H](Cc1c[nH]c2ccccc12)C(=O)N[C@@H](CCC(N)=O)C(=O)N1CCC[C@H]1C(=O)N[C@H]1CSSC[C@@H](C(=O)N[C@@H](Cc2c[nH]c3ccccc23)C(=O)N[C@@H](CC(=O)O)C(=O)N2CCC[C@H]2C(=O)NCC(=O)NCC(=O)NCC(=O)N[C@@H](CCCCNC(=O)c2ccc3c(c2)C(=O)OC32c3ccc(O)cc3Oc3cc(O)ccc32)C(N)=O)NC(=O)[C@H](CC2CCCCC2)NC(=O)[C@H]([C@@H](C)O)NC(=O)[C@H](Cc2c[nH]c3ccccc23)NC(=O)[C@H](CO)NC(=O)[C@H](CCC(=O)O)NC(=O)[C@H](C)NC(=O)[C@@H]2CCCN2C1=O` [Seq053-CF5, Ac-RGWQPC*PAESWT-Cha-C*WDPGGGK(CF5)-NH2] (Ac-RGWQPCPAESWT[Cha]CWDPGGGK(5FAM)-NH2; disulfide 6-14), the Kd turned out to be 0.1 µM.
The figure for `CC(=O)NCC(=O)N[C@@H](Cc1c[nH]c2ccccc12)C(=O)N[C@@H](CCC(N)=O)C(=O)N1CCC[C@H]1C(=O)N[C@H]1CSSC[C@@H](C(=O)N[C@@H](Cc2c[nH]c3ccccc23)C(=O)N[C@@H](CC(=O)O)C(=O)N2CCC[C@H]2C(=O)NCC(=O)NCC(=O)NCC(=O)N[C@@H](CCCCNC(=O)c2ccc3c(c2)C(=O)OC32c3ccc(O)cc3Oc3cc(O)ccc32)C(N)=O)NC(=O)[C@H](CC2CCCCC2)NC(=O)[C@H]([C@@H](C)O)NC(=O)[C@H](Cc2c[nH]c3ccccc23)NC(=O)[C@H](CO)NC(=O)[C@H](CCC(=O)O)NC(=O)[C@H](C)NC(=O)[C@@H]2CCCN2C1=O` [Seq055-CF5, Ac-GWQPC*PAESWT-Cha-C*WDPGGGK(CF5)-NH2] (Ac-GWQPCPAESWT[Cha]CWDPGGGK(5FAM)-NH2; disulfide 5-13) is 0.08 µM; for `CC(=O)N[C@@H](CCCCN)C(=O)N[C@@H](CCCCN)C(=O)NCC(=O)N[C@@H](Cc1c[nH]c2ccccc12)C(=O)N[C@@H](CCC(N)=O)C(=O)N1CCC[C@H]1C(=O)N[C@H]1CSSC[C@@H](C(=O)N[C@@H](Cc2c[nH]c3ccccc23)C(=O)N[C@@H](CC(=O)O)C(=O)N2CCC[C@H]2C(=O)NCC(=O)NCC(=O)NCC(=O)N[C@@H](CCCCNC(=O)c2ccc3c(c2)C(=O)OC32c3ccc(O)cc3Oc3cc(O)ccc32)C(N)=O)NC(=O)[C@H](Cc2ccccc2)NC(=O)[C@H]([C@@H](C)O)NC(=O)[C@H](Cc2c[nH]c3ccccc23)NC(=O)[C@H](CO)NC(=O)[C@H](CCC(=O)O)NC(=O)[C@H](Cc2c[nH]c3ccccc23)NC(=O)[C@@H]2CCCN2C1=O` [Seq025-CF5] (Ac-KKGWQPCPWESWTFCWDPGGGK(5FAM)-NH2; disulfide 7-15) it is 0.71 µM.
In the case of `C[C@@H]1NC(=O)[C@@H]2CCCN2C(=O)[C@@H](NC(=O)[C@@H]2CCCN2C(=O)[C@H](CCC(N)=O)NC(=O)[C@H](Cc2c[nH]c3ccccc23)NC(=O)CN)CSSC[C@@H](C(=O)N[C@@H](Cc2c[nH]c3ccccc23)C(=O)N[C@@H](CC(=O)O)C(=O)N2CCC[C@H]2C(=O)NCC(=O)NCC(=O)NCC(=O)N[C@@H](CCCCNC(=O)c2ccc3c(c2)C(=O)OC32c3ccc(O)cc3Oc3cc(O)ccc32)C(N)=O)NC(=O)[C@H](Cc2ccccc2)NC(=O)[C@H]([C@@H](C)O)NC(=O)[C@H](Cc2c[nH]c3ccccc23)NC(=O)[C@H](CO)NC(=O)[C@H](CCC(=O)O)NC1=O` [Seq038-CF5] (H-GWQPCPAESWTFCWDPGGGK(5FAM)-NH2; disulfide 5-13; N-terminus assumed), the Kd stood at 0.24 µM.
Turning to `CC(=O)N[C@@H](Cc1c[nH]c2ccccc12)C(=O)N[C@@H](CCC(N)=O)C(=O)N1CCC[C@H]1C(=O)N[C@H]1CSSC[C@@H](C(=O)N[C@@H](Cc2c[nH]c3ccccc23)C(=O)N[C@@H](CC(=O)O)C(=O)N2CCC[C@H]2C(=O)NCC(=O)NCC(=O)NCC(=O)N[C@@H](CCCCNC(=O)c2ccc3c(c2)C(=O)OC32c3ccc(O)cc3Oc3cc(O)ccc32)C(N)=O)NC(=O)[C@H](Cc2ccc(F)cc2)NC(=O)[C@H]([C@@H](C)O)NC(=O)[C@H](Cc2c[nH]c3ccccc23)NC(=O)[C@H](CO)NC(=O)[C@H](CCC(=O)O)NC(=O)[C@H](Cc2c[nH]c3ccccc23)NC(=O)[C@@H]2CCCN2C1=O` [Seq019-CF5, Ac-WQPC*PWESWT-Ffe4-C*WDPGGGK(CF5)-NH2] (Ac-WQPCPWESWT[Phe(4-F)]CWDPGGGK(5FAM)-NH2; disulfide 4-12), the Kd turned out to be 1.02 µM.
The figure for `CC(=O)N[C@@H](CCCCN)C(=O)NCC(=O)N[C@@H](CCCCN)C(=O)NCC(=O)N[C@@H](CCCCN)C(=O)NCC(=O)N[C@@H](Cc1c[nH]c2ccccc12)C(=O)N[C@@H](CCC(N)=O)C(=O)N1CCC[C@H]1C(=O)N[C@H]1CSSC[C@@H](C(=O)N[C@@H](Cc2c[nH]c3ccccc23)C(=O)N[C@@H](CC(=O)O)C(=O)N2CCC[C@H]2C(=O)NCC(=O)NCC(=O)NCC(=O)N[C@@H](CCCCNC(=O)c2ccc3c(c2)C(=O)OC32c3ccc(O)cc3Oc3cc(O)ccc32)C(N)=O)NC(=O)[C@H](Cc2ccccc2)NC(=O)[C@H]([C@@H](C)O)NC(=O)[C@H](Cc2c[nH]c3ccccc23)NC(=O)[C@H](CO)NC(=O)[C@H](CCC(=O)O)NC(=O)[C@H](Cc2c[nH]c3ccccc23)NC(=O)[C@@H]2CCCN2C1=O` [Seq026-CF5] (Ac-KGKGKGWQPCPWESWTFCWDPGGGK(5FAM)-NH2; disulfide 10-18) is 0.76 µM; for `C[C@@H](O)[C@@H]1NC(=O)[C@H](Cc2c[nH]c3ccccc23)NC(=O)[C@H](CO)NC(=O)[C@H](CCC(=O)O)NC(=O)[C@H](Cc2c[nH]c3ccccc23)NC(=O)[C@@H]2CCCN2C(=O)[C@@H](NC(=O)[C@@H]2CCCN2C(=O)[C@H](CCC(N)=O)NC(=O)[C@H](Cc2c[nH]c3ccccc23)NC(=O)CNC(=O)[C@@H](N)CCCNC(=N)N)CSSC[C@@H](C(=O)N[C@@H](Cc2c[nH]c3ccccc23)C(=O)N[C@@H](CC(=O)O)C(=O)N2CCC[C@H]2C(=O)NCC(=O)NCC(=O)NCC(=O)N[C@@H](CCCCNC(=O)c2ccc3c(c2)C(=O)OC32c3ccc(O)cc3Oc3cc(O)ccc32)C(N)=O)NC(=O)[C@H](Cc2ccccc2)NC1=O` [Seq022-CF5] (H-RGWQPCPWESWTFCWDPGGGK(5FAM)-NH2; disulfide 6-14; N-terminus assumed) it is 0.28 µM; for `C[C@@H]1NC(=O)[C@@H]2CCCN2C(=O)[C@@H](NC(=O)[C@@H]2CCCN2C(=O)[C@H](CCC(N)=O)NC(=O)[C@H](Cc2c[nH]c3ccccc23)NC(=O)CNC(=O)[C@@H](N)CCCNC(=N)N)CSSC[C@@H](C(=O)N[C@@H](Cc2c[nH]c3ccccc23)C(=O)N[C@@H](CC(=O)O)C(=O)N2CCC[C@H]2C(=O)NCC(=O)NCC(=O)NCC(=O)N[C@@H](CCCCNC(=O)c2ccc3c(c2)C(=O)OC32c3ccc(O)cc3Oc3cc(O)ccc32)C(N)=O)NC(=O)[C@H](CC2CCCCC2)NC(=O)[C@H]([C@@H](C)O)NC(=O)[C@H](Cc2c[nH]c3ccccc23)NC(=O)[C@H](CO)NC(=O)[C@H](CCC(=O)O)NC1=O` [Seq054-CF5, RGWQPC*PAESWT-Cha-C*WDPGGGK(CF5)-NH2] (H-RGWQPCPAESWT[Cha]CWDPGGGK(5FAM)-NH2; disulfide 6-14) it is 0.05 µM.

For the origin of these results see patent US8466107B2, “Fibrin-binding peptides and conjugates thereof” (Bracco Imaging SpA, priority 2006, dated 2013).
